From ChEMBL document CHEMBL2073891, “Interaction of digoxin with antihypertensive drugs via MDR1” (Life Sci, 2002)
Values belong to the compound of their own block, whether it stands above or below them.

Experiments:
Format in all cases: functional, cell-based
Conditions in all cases: pig, llc-pk1, 50 µM
[1] = target: T1, ATP-dependent translocase ABCB1 (Homo sapiens, UniProt P08183); assay: TP_TRANSPORTER: inhibition of Digoxin transepithelial transport (basal to apical) (Digoxin: 0.1 uM, Losartan: 50 uM) in MDR1-expressing LLC-PK1 cells
[2] = target: T1, ATP-dependent translocase ABCB1; assay: TP_TRANSPORTER: inhibition of Digoxin transepithelial transport (basal to apical)(Digoxin: 0.1 uM, Enalapril: 50 uM) in MDR1-expressing LLC-PK1 cells
[3] = target: T1, ATP-dependent translocase ABCB1; assay: TP_TRANSPORTER: inhibition of Digoxin transepithelial transport (basal to apical)(Digoxin: 0.1 uM, Temocapril: 50 uM) in MDR1-expressing LLC-PK1 cells
[4] = target: T1, ATP-dependent translocase ABCB1; assay: TP_TRANSPORTER: inhibition of Digoxin transepithelial transport (basal to apical) (Digoxin: 0.1 uM, Perindopril: 50 uM) in MDR1-expressing LLC-PK1 cells
[5] = target: T1, ATP-dependent translocase ABCB1; assay: TP_TRANSPORTER: inhibition of Digoxin transepithelial transport (basal to apical)(Digoxin: 0.1 uM, Metprolol: 50 uM) in MDR1-expressing LLC-PK1 cells
[6] = target: T1, ATP-dependent translocase ABCB1; assay: TP_TRANSPORTER: inhibition of Digoxin transepithelial transport (basal to apical)(Digoxin: 0.1 uM, Carvedilol: 50 uM) in MDR1-expressing LLC-PK1 cells
[7] = target: T1, ATP-dependent translocase ABCB1; assay: TP_TRANSPORTER: inhibition of Digoxin transepithelial transport (basal to apical)(Digoxin: 0.1 uM, Captopril: 50 uM) in MDR1-expressing LLC-PK1 cells
[8] = target: T1, ATP-dependent translocase ABCB1; assay: TP_TRANSPORTER: inhibition of Digoxin transepithelial transport (basal to apical) (Digoxin: 0.1 uM, Lisinopril: 50 uM) in MDR1-expressing LLC-PK1 cells
[9] = target: T1, ATP-dependent translocase ABCB1; assay: TP_TRANSPORTER: inhibition of Digoxin transepithelial transport (basal to apical)(Digoxin: 0.1 uM, Cilazaprilat: 50 uM) in MDR1-expressing LLC-PK1 cells
[10] = target: T1, ATP-dependent translocase ABCB1; assay: TP_TRANSPORTER: inhibition of Digoxin transepithelial transport (basal to apical)(Digoxin: 0.1 uM, Doxazosin: 50 uM) in MDR1-expressing LLC-PK1 cells
[11] = target: T1, ATP-dependent translocase ABCB1; assay: TP_TRANSPORTER: inhibition of Digoxin transepithelial transport (basal to apical)(Digoxin: 0.1 uM, Candesartan: 50 uM) in MDR1-expressing LLC-PK1 cells
[12] = target: T1, ATP-dependent translocase ABCB1; assay: TP_TRANSPORTER: inhibition of Digoxin transepithelial transport (basal to apical) (Digoxin: 0.1 uM, Perindoprilat: 50 uM) in MDR1-expressing LLC-PK1 cells
[13] = target: T1, ATP-dependent translocase ABCB1; assay: TP_TRANSPORTER: inhibition of Digoxin transepithelial transport (basal to apical)(Digoxin: 0.1 uM, Candesartan cilexetil: 50 uM) in MDR1-expressing LLC-PK1 cells
[14] = target: T1, ATP-dependent translocase ABCB1; assay: TP_TRANSPORTER: inhibition of Digoxin transepithelial transport (basal to apical)(Digoxin: 0.1 uM, Atenolol: 50 uM) in MDR1-expressing LLC-PK1 cells
[15] = target: T1, ATP-dependent translocase ABCB1; assay: TP_TRANSPORTER: inhibition of Digoxin transepithelial transport (basal to apical)(Digoxin: 0.1 uM, Delapril: 50 uM) in MDR1-expressing LLC-PK1 cells
[16] = target: T1, ATP-dependent translocase ABCB1; assay: TP_TRANSPORTER: inhibition of Digoxin transepithelial transport (basal to apical)(Digoxin: 0.1 uM, Cilazapril: 50 uM) in MDR1-expressing LLC-PK1 cells
[17] = target: T1, ATP-dependent translocase ABCB1; assay: TP_TRANSPORTER: inhibition of Digoxin transepithelial transport (basal to apical)(Digoxin: 0.1 uM, Temocaprilat: 50 uM) in MDR1-expressing LLC-PK1 cells

T1 sequence (P08183 whole entry): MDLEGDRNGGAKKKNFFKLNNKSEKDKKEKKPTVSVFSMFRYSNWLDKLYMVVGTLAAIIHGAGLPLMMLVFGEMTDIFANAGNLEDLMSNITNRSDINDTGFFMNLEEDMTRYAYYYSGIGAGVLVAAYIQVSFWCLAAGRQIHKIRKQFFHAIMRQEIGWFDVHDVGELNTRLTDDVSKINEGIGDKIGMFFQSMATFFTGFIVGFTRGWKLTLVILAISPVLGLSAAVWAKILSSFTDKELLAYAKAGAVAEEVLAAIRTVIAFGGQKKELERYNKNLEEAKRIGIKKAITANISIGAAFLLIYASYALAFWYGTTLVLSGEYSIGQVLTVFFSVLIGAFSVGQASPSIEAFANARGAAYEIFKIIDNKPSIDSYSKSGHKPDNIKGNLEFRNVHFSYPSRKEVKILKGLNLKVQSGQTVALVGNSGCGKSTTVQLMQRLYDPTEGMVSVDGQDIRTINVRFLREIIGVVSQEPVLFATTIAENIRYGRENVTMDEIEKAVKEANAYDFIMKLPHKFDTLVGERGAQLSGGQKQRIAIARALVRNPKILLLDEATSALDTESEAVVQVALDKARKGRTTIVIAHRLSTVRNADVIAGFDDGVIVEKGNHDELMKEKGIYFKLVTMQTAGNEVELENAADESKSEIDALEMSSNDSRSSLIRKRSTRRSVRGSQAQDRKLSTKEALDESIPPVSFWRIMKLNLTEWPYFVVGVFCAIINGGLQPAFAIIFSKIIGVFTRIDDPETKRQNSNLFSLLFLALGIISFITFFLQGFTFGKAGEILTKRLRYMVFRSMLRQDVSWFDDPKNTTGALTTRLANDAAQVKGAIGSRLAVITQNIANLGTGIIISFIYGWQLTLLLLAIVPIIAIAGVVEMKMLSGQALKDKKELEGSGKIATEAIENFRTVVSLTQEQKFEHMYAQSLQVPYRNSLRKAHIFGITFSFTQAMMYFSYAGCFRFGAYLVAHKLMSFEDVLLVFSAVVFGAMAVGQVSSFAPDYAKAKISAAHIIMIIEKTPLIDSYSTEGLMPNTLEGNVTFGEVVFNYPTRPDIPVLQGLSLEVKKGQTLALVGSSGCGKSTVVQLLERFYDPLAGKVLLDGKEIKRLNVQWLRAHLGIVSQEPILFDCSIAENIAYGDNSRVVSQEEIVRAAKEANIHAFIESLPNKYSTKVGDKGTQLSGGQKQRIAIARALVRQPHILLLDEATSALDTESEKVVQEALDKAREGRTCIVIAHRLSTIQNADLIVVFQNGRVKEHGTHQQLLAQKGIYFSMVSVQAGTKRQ

Activity [1]: is not an inhibitor [-]
SMILES: CCCCc1nc(Cl)c(CO)n1Cc1ccc(-c2ccccc2-c2nn[nH]n2)cc1 [LOSARTAN]

Activity [2]: is not an inhibitor [-]
SMILES: CCOC(=O)[C@H](CCc1ccccc1)N[C@@H](C)C(=O)N1CCC[C@H]1C(=O)O [ENALAPRIL]

Activity [3]: is not an inhibitor [-]
SMILES: CCOC(=O)[C@H](CCc1ccccc1)N[C@H]1CS[C@H](c2cccs2)CN(CC(=O)O)C1=O [TEMOCAPRIL]

Activity [4]: is not an inhibitor [-]
SMILES: CCC[C@H](N[C@@H](C)C(=O)N1[C@H](C(=O)O)C[C@@H]2CCCC[C@@H]21)C(=O)OCC [PERINDOPRIL]

Activity [5]: is not an inhibitor [-]
SMILES: COCCc1ccc(OCC(O)CNC(C)C)cc1 (configuration not stated) [METOPROLOL]

Activity [12]: is not an inhibitor [-]
SMILES: CCC[C@H](N[C@@H](C)C(=O)N1[C@H](C(=O)O)C[C@@H]2CCCC[C@@H]21)C(=O)O [PERINDOPRILAT]

Activity [17]: is not an inhibitor [-]
SMILES: O=C(O)CN1C[C@@H](c2cccs2)SC[C@H](N[C@@H](CCc2ccccc2)C(=O)O)C1=O [TEMOCAPRILAT]

Further lines, the compound ahead of its results:

SMILES: COc1ccccc1OCCNCC(O)COc1cccc2[nH]c3ccccc3c12 (configuration not stated) [CARVEDILOL]
Activity [6]: inhibitor [+]

SMILES: C[C@H](CS)C(=O)N1CCC[C@H]1C(=O)O [CAPTOPRIL]
Activity [7]: is not an inhibitor [-]

SMILES: NCCCC[C@H](N[C@@H](CCc1ccccc1)C(=O)O)C(=O)N1CCC[C@H]1C(=O)O [LISINOPRIL ANHYDROUS]
Activity [8]: is not an inhibitor [-]

SMILES: O=C(O)[C@H](CCc1ccccc1)N[C@H]1CCCN2CCC[C@@H](C(=O)O)N2C1=O [CILAZAPRILAT]
Activity [9]: is not an inhibitor [-]

SMILES: COc1cc2nc(N3CCN(C(=O)C4COc5ccccc5O4)CC3)nc(N)c2cc1OC (configuration not stated) [DOXAZOSIN]
Activity [10]: inhibitor [+]

SMILES: CCOc1nc2cccc(C(=O)O)c2n1Cc1ccc(-c2ccccc2-c2nnn[nH]2)cc1 [CANDESARTAN]
Activity [11]: is not an inhibitor [-]

SMILES: CCOc1nc2cccc(C(=O)OC(C)OC(=O)OC3CCCCC3)c2n1Cc1ccc(-c2ccccc2-c2nnn[nH]2)cc1 (configuration not stated) [CANDESARTAN CILEXETIL]
Activity [13]: is not an inhibitor [-]

SMILES: CC(C)NCC(O)COc1ccc(CC(N)=O)cc1 (configuration not stated) [ATENOLOL]
Activity [14]: is not an inhibitor [-]

SMILES: CCOC(=O)[C@H](CCc1ccccc1)N[C@@H](C)C(=O)N(CC(=O)O)C1Cc2ccccc2C1 [DELAPRIL]
Activity [15]: is not an inhibitor [-]

SMILES: CCOC(=O)[C@H](CCc1ccccc1)N[C@H]1CCCN2CCC[C@@H](C(=O)O)N2C1=O [CILAZAPRIL]
Activity [16]: is not an inhibitor [-]
